How the values were obtained:
CYP3A4 = CYP3A4 (Homo sapiens, UniProt P08684); experiment: Clinical probe-substrate DDI study: midazolam; conditions: healthy subjects
Description: The effect of voxelotor on the pharmacokinetics (PK) of a single dose of caffeine, warfarin sodium, omeprazole, and midazolam hydrochloride, which are probe substrates for cytochrome P450 (CYP)1A2, CYP2C9, CYP2C19, and CYP3A4, respectively, were studied in healthy subjects. During Period 1, subjects received a single dose of caffeine 100 mg, warfarin sodium 10 mg+vitamin K 10 mg, omeprazole 20 mg, and midazolam hydrochloride 2 mg on Day 1. During Period 2, subjects received voxelotor 900 mg QD on Days 1 and 2 followed by 600 mg QD on Day 3, a single dose of caffeine 100 mg, warfarin sodium 10 mg+vitamin K 10 mg, omeprazole 20 mg, and midazolam hydrochloride 2 mg on Day 4, and voxelotor 600 mg QD on Days 4 through 7.
Whole blood and plasma concentrations of voxelotor and plasma concentrations of caffeine, paraxanthine, S-warfarin, omeprazole, 5-hydroxyomeprazole, midazolam, and 1-hydroxymidazolam were determined using validated assays.

P-gp = P-gp (Homo sapiens, UniProt P08183); experiment: Clinical DDI: voxelotor on digoxin; conditions: in vivo
[1] = voxelotor 900 mg QD days 1-2, then 600 mg QD, midazolam hydrochloride 2 mg single dose

Sequence of CYP3A4 (P08684 whole entry): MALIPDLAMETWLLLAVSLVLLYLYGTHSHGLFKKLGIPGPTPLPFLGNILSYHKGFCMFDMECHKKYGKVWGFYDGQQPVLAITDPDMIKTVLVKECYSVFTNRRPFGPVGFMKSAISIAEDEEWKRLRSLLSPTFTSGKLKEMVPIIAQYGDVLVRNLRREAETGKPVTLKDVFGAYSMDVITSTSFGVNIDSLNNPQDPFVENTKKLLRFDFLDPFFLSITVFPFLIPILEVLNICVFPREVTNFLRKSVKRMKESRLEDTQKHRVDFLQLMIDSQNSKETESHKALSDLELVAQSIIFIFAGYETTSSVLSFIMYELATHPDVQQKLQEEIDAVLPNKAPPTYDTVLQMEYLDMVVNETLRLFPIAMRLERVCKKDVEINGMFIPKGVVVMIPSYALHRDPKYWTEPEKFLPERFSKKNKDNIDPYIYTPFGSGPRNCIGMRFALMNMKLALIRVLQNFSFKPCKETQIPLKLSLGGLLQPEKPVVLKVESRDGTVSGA
Sequence of P-gp (P08183 whole entry): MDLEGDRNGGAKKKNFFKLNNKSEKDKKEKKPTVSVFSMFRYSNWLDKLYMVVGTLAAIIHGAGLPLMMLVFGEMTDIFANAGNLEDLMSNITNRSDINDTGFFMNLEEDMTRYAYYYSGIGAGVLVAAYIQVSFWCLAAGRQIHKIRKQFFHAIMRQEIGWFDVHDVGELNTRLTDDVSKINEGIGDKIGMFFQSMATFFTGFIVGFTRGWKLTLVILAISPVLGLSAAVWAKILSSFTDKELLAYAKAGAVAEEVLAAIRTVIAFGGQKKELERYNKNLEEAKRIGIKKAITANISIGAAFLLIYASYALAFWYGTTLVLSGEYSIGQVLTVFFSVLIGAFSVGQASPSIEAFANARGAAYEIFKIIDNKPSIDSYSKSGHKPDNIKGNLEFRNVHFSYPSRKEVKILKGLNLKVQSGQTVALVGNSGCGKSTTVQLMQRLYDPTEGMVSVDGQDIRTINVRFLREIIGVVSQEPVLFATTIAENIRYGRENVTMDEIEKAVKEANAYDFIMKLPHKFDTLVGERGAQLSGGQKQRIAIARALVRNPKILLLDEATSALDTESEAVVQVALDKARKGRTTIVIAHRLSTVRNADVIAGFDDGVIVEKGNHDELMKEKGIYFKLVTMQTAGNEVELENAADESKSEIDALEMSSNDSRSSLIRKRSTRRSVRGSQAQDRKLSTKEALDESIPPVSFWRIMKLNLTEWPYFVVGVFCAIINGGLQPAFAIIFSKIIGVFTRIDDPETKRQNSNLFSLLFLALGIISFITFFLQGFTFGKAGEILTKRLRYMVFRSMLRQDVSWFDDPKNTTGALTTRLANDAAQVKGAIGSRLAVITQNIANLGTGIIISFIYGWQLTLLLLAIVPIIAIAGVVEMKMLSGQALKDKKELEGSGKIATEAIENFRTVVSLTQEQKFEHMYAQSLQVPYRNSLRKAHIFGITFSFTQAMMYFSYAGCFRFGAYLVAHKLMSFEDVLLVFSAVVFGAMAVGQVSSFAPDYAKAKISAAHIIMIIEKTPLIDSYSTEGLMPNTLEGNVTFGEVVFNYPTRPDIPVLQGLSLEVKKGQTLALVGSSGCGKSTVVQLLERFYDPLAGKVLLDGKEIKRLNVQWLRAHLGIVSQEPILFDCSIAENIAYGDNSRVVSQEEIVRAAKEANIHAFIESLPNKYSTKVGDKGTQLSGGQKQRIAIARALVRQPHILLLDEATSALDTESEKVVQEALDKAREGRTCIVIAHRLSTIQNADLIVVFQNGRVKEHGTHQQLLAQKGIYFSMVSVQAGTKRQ

## OCc1ncc2n1-c1ccc(Cl)cc1C(c1ccccc1F)=NC2 [1′-hydroxy-midazolam]
CYP3A4; [1]
  increase of overall exposure of midazolam metabolite in the presence of voxelotor: 75%

## C[C@H]1O[C@@H](O[C@H]2[C@@H](O)C[C@H](O[C@H]3[C@@H](O)C[C@H](O[C@H]4CC[C@@]5(C)[C@H](CC[C@@H]6[C@@H]5C[C@@H](O)[C@]5(C)[C@@H](C7=CC(=O)OC7)CC[C@]65O)C4)O[C@@H]3C)O[C@@H]2C)C[C@H](O)[C@@H]1O [digoxin]
P-gp
  effect of concomitant OXBRYTA on digoxin (P-gp substrate): did not alter digoxin to a clinically relevant extent

## Cc1ncc2n1-c1ccc(Cl)cc1C(c1ccccc1F)=NC2 [midazolam]
CYP3A4
  observed exposure increase of midazolam with voxelotor: 1.6 fold
CYP3A4; [1]
  increase of overall exposure of midazolam in the presence of voxelotor: 63%
